Laboratory results from the NIST ThermoML archive (doi:10.1021/je301122r).
± gives the expanded uncertainty stated by the source.

Experiments:
[1] = 293.15 K; 101.33 kPa; Liquid; Vibrating tube method
[2] = refractive index (Na D-line) (dimensionless); details: 293.15 K; 101.33 kPa; Liquid; Standard Abbe refractometry

Compound	mass density [1]	refractive index [2]
Cc1ccc(C)c(C)c1 [1,2,4-trimethylbenzene]	875.78 ± 0.13 kg/m3	1.5047 ± 0.0007
CCc1ccccc1C [1-ethyl-2-methylbenzene]	880.66 ± 0.13 kg/m3	1.5045 ± 0.0007
